According to patent US5563155A, “Individual stereosiomers of 7-[3-(aminoalkyl)-1-pyrrolidinyl]-quinolones and naphthyridones as antibacterial agents” (Warner-Lambert Company, priority 1995, dated 1996):
Values after ≈ are worked out from the molar mass of the structure shown.

Assays:
Assay type in all cases: cell-based
Prot. rettgeri M 1771 = experiment: in vitro antibacterial activity, microtitration dilution (MIC), Prot. rettgeri M 1771; conditions: Providencia rettgeri, M1771, read-out: minimum inhibiting concentration (MIC)
Description: (§1) The in vitro antibacterial activity, is obtained by the microtitration dilution method as described in Heifetz, et al., Antimicr. Agents & Chemother., 6, 124 (1974), which is incorporated herein by reference.
(§2) By use of the above methods, the following minimum inhibiting concentration values (MICs in μg/mL), PD50 's in mg/kg, no effect phototoxicity dose in mg/kg and the cytotoxicity IC50 in μg/mL were obtained for representative enantiomers of the invention and compounds of the prior art as shown in the table.

Klebs. pneumoniae MGH-2 = experiment: in vitro antibacterial activity, microtitration dilution (MIC), Klebs. pneumoniae MGH-2; conditions: Klebsiella pneumoniae, MGH2, read-out: minimum inhibiting concentration (MIC)
Description: as §1, §2

Strep. pyogenes C-203 = experiment: in vitro antibacterial activity, microtitration dilution (MIC), Strep. pyogenes C-203; conditions: Streptococcus pyogenes, C203, read-out: minimum inhibiting concentration (MIC)
Description: as §1, §2

Staph. aureus UC-76 = experiment: in vitro antibacterial activity, microtitration dilution (MIC), Staph. aureus UC-76; conditions: Staphylococcus aureus, UC76, read-out: minimum inhibiting concentration (MIC)
Description: as §1, §2

Strep. pheumoniae SV-1 = experiment: in vitro antibacterial activity, microtitration dilution (MIC), Strep. pneumoniae SV-1; conditions: Streptococcus pneumoniae, SV1, read-out: minimum inhibiting concentration (MIC)
Description: as §1, §2

Ent. cloacae MA2646 = experiment: in vitro antibacterial activity, microtitration dilution (MIC), Ent. cloacae MA2646; conditions: Enterobacter cloacae, read-out: minimum inhibiting concentration (MIC)
Description: as §1, §2

Strep. faecalis MGH-2 = experiment: in vitro antibacterial activity, microtitration dilution (MIC), Strep. faecalis MGH-2; conditions: Enterococcus faecalis, MGH2, read-out: minimum inhibiting concentration (MIC)
Description: as §1, §2

Pseud. aeruginosa UI-18 = experiment: in vitro antibacterial activity, microtitration dilution (MIC), Pseud. aeruginosa UI-18; conditions: Pseudomonas aeruginosa, UI18, read-out: minimum inhibiting concentration (MIC)
Description: as §1, §2

Staph. aureus H 228 = experiment: in vitro antibacterial activity, microtitration dilution (MIC), Staph. aureus H 228; conditions: Staphylococcus aureus, H228, read-out: minimum inhibiting concentration (MIC)
Description: as §1, §2

Esch. coli Vogel = experiment: in vitro antibacterial activity, microtitration dilution (MIC), Esch. coli Vogel; conditions: Escherichia coli, read-out: minimum inhibiting concentration (MIC)
Description: as §1, §2

SMILES | MIC (Prot. rettgeri M 1771) [µg/mL] | MIC (Klebs. pneumoniae MGH-2) [µg/mL] | MIC (Strep. pyogenes C-203) [µg/mL] | MIC (Staph. aureus UC-76) [µg/mL] | MIC (Strep. pheumoniae SV-1) [µg/mL] | MIC (Ent. cloacae MA2646) [µg/mL] | MIC (Strep. faecalis MGH-2) [µg/mL] | MIC (Pseud. aeruginosa UI-18) [µg/mL] | MIC (Staph. aureus H 228) [µg/mL] | MIC (Esch. coli Vogel) [µg/mL]
COc1c(N2CC[C@@H]([C@@H](C)N)C2)c(F)cc2c(=O)c(C(=O)O)cn(C3CC3)c12 [Example 45, 3R,1R-7-[3-(1-aminoethyl)-1-pyrrolidinyl]-1-cyclopropyl-6-fluoro-1,4-dihydro-8-methoxy-4-oxo-3-quinolinecarboxylic acid] | 0.2 (≈ 0.514 µM) | 0.1 (≈ 0.257 µM) | 0.013 (≈ 0.0334 µM) | ≤ 0.03 | 0.013 (≈ 0.0334 µM) | 0.05 (≈ 0.128 µM) | 0.025 (≈ 0.0642 µM) | 0.8 (≈ 2.05 µM) | 0.25 (≈ 0.642 µM) | 0.05 (≈ 0.128 µM)
CN[C@H](C)[C@H]1CCN(c2c(F)c(N)c3c(=O)c(C(=O)O)cn(C4CC4)c3c2F)C1 [Example 34, 3S,1R-5-amino-1-cyclopropyl-6,8-difluoro-7-[3-(1-N-methylaminoethyl)-1-pyrrolidinyl]-1,4-dihydro-4-oxo-3-quinolinecarboxylic acid] | 1.6 (≈ 3.94 µM) | 0.8 (≈ 1.97 µM) | 1.6 (≈ 3.94 µM) | 0.4 (≈ 0.984 µM) | 0.8 (≈ 1.97 µM) | 0.4 (≈ 0.984 µM) | 1.6 (≈ 3.94 µM) | 3.1 (≈ 7.63 µM) | 0.8 (≈ 1.97 µM) | 0.4 (≈ 0.984 µM)
Cc1c(F)c(N2CC[C@@H]([C@H](C)N)C2)cc2c1c(=O)c(C(=O)O)cn2C1CC1 [Example 47, 3R,1S-7-[3-(1-aminoethyl)-1-pyrrolidinyl]-1-cyclopropyl-6-fluoro-1,4-dihydro-5-methyl-4-oxo-3-quinolinecarboxylic acid] | 0.2 (≈ 0.536 µM) | 0.1 (≈ 0.268 µM) | 0.003 (≈ 0.00803 µM) | 0.003 (≈ 0.00803 µM) | 0.003 (≈ 0.00803 µM) | 0.1 (≈ 0.268 µM) | 0.025 (≈ 0.0669 µM) | 0.8 (≈ 2.14 µM) | 0.025 (≈ 0.0669 µM) | 0.1 (≈ 0.268 µM)
CN[C@@H](C)[C@H]1CCN(c2nc3c(cc2F)c(=O)c(C(=O)O)cn3C2CC2)C1 [Example 24, 3S,1S-1-cyclopropyl-6-fluoro-7-[3-(1-N-methylaminoethyl)-1-pyrrolidinyl]-1,4-dihydro-4-oxo-1,8-naphthyridine-3-carboxylic acid] | 0.8 (≈ 2.14 µM) | 0.4 (≈ 1.07 µM) | 0.4 (≈ 1.07 µM) | 0.2 (≈ 0.534 µM) | 0.4 (≈ 1.07 µM) | 0.4 (≈ 1.07 µM) | 0.8 (≈ 2.14 µM) | 3.1 (≈ 8.28 µM) | 0.8 (≈ 2.14 µM) | 0.2 (≈ 0.534 µM)

The next lines start with the values.

MIC (Prot. rettgeri M 1771) [µg/mL] | MIC (Klebs. pneumoniae MGH-2) [µg/mL] | MIC (Strep. pyogenes C-203) [µg/mL] | MIC (Staph. aureus UC-76) [µg/mL] | MIC (Strep. pheumoniae SV-1) [µg/mL] | MIC (Ent. cloacae MA2646) [µg/mL] | MIC (Strep. faecalis MGH-2) [µg/mL] | MIC (Pseud. aeruginosa UI-18) [µg/mL] | MIC (Staph. aureus H 228) [µg/mL] | MIC (Esch. coli Vogel) [µg/mL] | SMILES
1.6 (≈ 4.12 µM) | 0.4 (≈ 1.03 µM) | 0.4 (≈ 1.03 µM) | 0.1 (≈ 0.257 µM) | 0.1 (≈ 0.257 µM) | 0.2 (≈ 0.515 µM) | 0.2 (≈ 0.515 µM) | 3.1 (≈ 7.98 µM) | 0.2 (≈ 0.515 µM) | 0.2 (≈ 0.515 µM) | CCN[C@@H](C)[C@H]1CCN(c2nc3c(cc2F)c(=O)c(C(=O)O)cn3C2CC2)C1 [Example 80, 3S,1S-1-cyclopropyl-7-[3-[1-(ethylamino)ethyl]-1-pyrrolidinyl]-6-fluoro-1,4-dihydro-4-oxo-1,8-naphthyridine-3-carboxylic acid]
0.8 (≈ 1.99 µM) | 0.2 (≈ 0.497 µM) | 0.013 (≈ 0.0323 µM) | 0.025 (≈ 0.0621 µM) | 0.013 (≈ 0.0323 µM) | 0.1 (≈ 0.248 µM) | 0.05 (≈ 0.124 µM) | 1.6 (≈ 3.98 µM) | 0.05 (≈ 0.124 µM) | 0.1 (≈ 0.248 µM) | CCN[C@@H](C)[C@@H]1CCN(c2cc3c(c(N)c2F)c(=O)c(C(=O)O)cn3C2CC2)C1 [Example 55, 3R,1S-5-amino-7-[3-(1-N-ethylaminoethyl)-1-pyrrolidinyl]-1-cyclopropyl-6-fluoro-1,4-dihydro-4-oxo-3-quinolinecarboxylic acid]
0.4 (≈ 0.936 µM) | 0.2 (≈ 0.468 µM) | 0.006 (≈ 0.014 µM) | 0.006 (≈ 0.014 µM) | 0.006 (≈ 0.014 µM) | 0.2 (≈ 0.468 µM) | 0.025 (≈ 0.0585 µM) | 1.6 (≈ 3.74 µM) | 0.013 (≈ 0.0304 µM) | 0.2 (≈ 0.468 µM) | C[C@H](N)[C@@H]1CCN(c2c(F)cc3c(=O)c(C(=O)O)cn(C4CC4)c3c2C(F)(F)F)C1 [Example 60, 3R,1S-7-[3-(1-aminoethyl)-1-pyrrolidinyl]-1-cyclopropyl-6-fluoro-1,4-dihydro-4-oxo-8-trifluoromethyl-3-quinolinecarboxylic acid]
